Legend:
[1] = target: T1, endothelial cell ion channel complex TRPV4-KCa2.3 (Mus musculus, UniProt P58391+Q9EPK8); test: FRET AB detection of coupling of TRPV4 and KCa2.3 in mesentery endothelial cells of hypertensive mice; assay type: cell-based, C57BL/6J mouse; settings: 10 μM, 96 h, endothelial cells of 8% high-salt, L-NAME and ANG-2 hypertensive mice; FIG. 4
T1 construct: The mesentery endothelial cells of the mice in the high blood pressure model are primarily isolated; endogenous in cells; host or cells: primary mesenteric endothelial cells of hypertensive C57BL/6J mice (high-salt, L-NAME, ANG-2 models)
Protocol: (§1) C57BL/6J Male mice, 8 weeks aged, are selected, and freely fed for one week. Then, the mice are classified into four groups, respectively 8% high-salt group, L-NAME group, ANG-2 group and reference group. The basic blood pressures of the four groups of mice are measured first to determine the base line of the blood pressure of the mice. The conditions of the reference group are not changed, and the blood pressure is measured every day. The high-salt group is fed with 8% high-salt feed, and then the blood pressure is measured every day. The L-name group is fed with 5% L-NAME solution, and then the blood pressure is measured every day. The ANG-2 group is injected with 4% chloral hydrate to perform anesthesia; then, the mice are respectively operated by implanting a pump on the back, wherein each pump is injected with 200 ul of 2.88 mg/ml ANG-2 solution; then, the mice are sutured and allowed to recover; after approximately 3 days, the measurement of the blood pressure begins, and then continues for about 4 weeks. […]
The mesentery endothelial cells of the mice in the high blood pressure model are primarily isolated and incubated in a constant-temperature cell incubator. […] Then, the coupling of the two proteins before and after the mutation is detected using the laser scanning confocal microscope in the FRET AB mode.

[2] = system: three high blood pressure types of mice models; test: Blood pressure in three high blood pressure types of mice models; assay type: in vivo, C57BL/6J mouse; settings: 1 mg/kg injected via the caudal veins; 8% high-salt, L-NAME and ANG-2 models; FIG. 5
Protocol: as §1
Experimental method: three high blood pressure types of mice models are constructed according to the method in Embodiment 4. After modeling succeeds, JNc-440 (1 mg/kg) is injected via the caudal veins, and then the blood pressure of the mice is measured and observed.

[3] = target: T2, protein KCa2.3 (structural domain 17C) (Mus musculus, UniProt P58391); test: Streptavidin magnetic bead pull-down of biotinylated JNc-440 from endothelial cell protein, Western blot detection; assay type: binding, C57BL/6 J mouse; settings: FIG. 3
T2 construct: RIPA Lysis is carried out to obtain cellular protein; endogenous in cells; host or cells: primary mesenteric endothelial cells of C57BL/6J mouse
Protocol: (§2) The endothelial cells of C57BL/6 J mouse mesentery are primarily isolated, and then incubated in a constant-temperature cell incubator. Biotinylated JNc-440 (10 μM/L) is added or oligopeptide and biotinylated JNc-440 (10 μM/L) are added into the incubator to jointly incubated with the cells for 96 h. RIPA Lysis is carried out to obtain cellular protein. The protein supernatant is added with 10 μL streptavidin magnetic beads, and the mixture is incubated at a temperature of 4° C. for a whole night. Suspension generated after the incubation is absorbed using a magnetic stand to obtain an avidin magnetic bead-biotinylated JNc-440-protein complex. The complex is suspended with 50 μL of 1× Loading buffer, and boiled for 5 min in a boiling bath. Samples are separated through SDS-PAGE. Proteins are transferred onto a PVDF membrane. The PVDF membrane with the proteins are confined in 5% BSA for 4 h at room temperature, then incubated with a primary antibody at a temperature of 4° C. for a whole night, and next incubated with a secondary antibody for 2 h at room temperature. ECL color developing agent is added. A protein imaging system is used to detect and analyze the obtained product.

[4] = target: T3, protein TRPV4 (structural domain AR2) (Mus musculus, UniProt Q9EPK8); test: as above; assay type: binding, C57BL/6 J mouse; settings: FIG. 3
T3 construct: RIPA Lysis is carried out to obtain cellular protein; endogenous in cells; host or cells: primary mesenteric endothelial cells of C57BL/6J mouse
Protocol: as §2

[5] = 10 μM/L, incubated 96 h with primary mouse mesentery endothelial cells

T3 sequence (Q9EPK8 whole entry, the tested form may be a part): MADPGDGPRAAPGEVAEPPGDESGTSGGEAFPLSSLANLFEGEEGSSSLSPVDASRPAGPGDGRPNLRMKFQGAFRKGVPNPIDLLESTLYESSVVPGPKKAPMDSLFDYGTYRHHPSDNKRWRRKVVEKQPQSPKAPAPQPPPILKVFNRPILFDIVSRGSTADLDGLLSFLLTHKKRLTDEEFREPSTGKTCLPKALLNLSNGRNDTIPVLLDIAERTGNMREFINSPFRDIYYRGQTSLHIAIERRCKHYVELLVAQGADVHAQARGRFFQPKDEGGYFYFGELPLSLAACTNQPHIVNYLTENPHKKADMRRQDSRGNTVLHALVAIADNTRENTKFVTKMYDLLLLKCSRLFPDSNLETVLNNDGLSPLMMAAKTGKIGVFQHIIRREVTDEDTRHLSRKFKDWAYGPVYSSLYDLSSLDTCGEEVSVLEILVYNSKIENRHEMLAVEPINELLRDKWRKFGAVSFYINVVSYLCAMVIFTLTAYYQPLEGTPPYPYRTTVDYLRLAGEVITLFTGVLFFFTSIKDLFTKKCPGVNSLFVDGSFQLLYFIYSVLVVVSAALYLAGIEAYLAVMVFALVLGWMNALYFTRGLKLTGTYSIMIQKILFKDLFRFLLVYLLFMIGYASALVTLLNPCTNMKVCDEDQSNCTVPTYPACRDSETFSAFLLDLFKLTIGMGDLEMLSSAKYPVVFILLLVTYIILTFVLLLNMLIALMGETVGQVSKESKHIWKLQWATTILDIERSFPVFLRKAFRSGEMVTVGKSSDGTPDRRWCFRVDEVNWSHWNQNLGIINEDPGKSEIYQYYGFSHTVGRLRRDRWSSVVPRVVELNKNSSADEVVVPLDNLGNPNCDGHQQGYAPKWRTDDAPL

SMILES | space coupling degree of the proteins TRPV4 and KCa2.3 (FRET) [1] | blood pressure of the mice [2] | capability of binding with the protein KCa2.3 after the oligopeptide 17C is added ([3]; 10 μM/L plus oligopeptide 17C, 96 h, compared with the reference control) | binding with the protein KCa2.3 [3, 5] | capability of binding with the protein TRPV4 after the oligopeptide AR2 is added ([4]; 10 μM/L plus oligopeptide AR2, 96 h) | binding with the protein TRPV4 [4, 5]
O=C(NCCCNC(=O)C(c1ccccc1)c1ccccc1)c1nc(=O)c2ccccc2[nH]1 [JNc-440] | increased obviously | drops obviously | – | – | – | –
O=C1NC2CSC(CCCCC(=O)OCCCCCNc3nc(C(=O)NCCCNC(=O)C(c4ccccc4)c4ccccc4)nc4ccccc34)C2N1 (stereo not drawn) [biotinylated JNc-440] | – | – | obviously reduced | can be bound | obviously reduced | can be bound

— patent US10336712B2, “Compound for enhancing the coupling degree of complex TRPV4-KCa2.3 and anti-hypertension applications thereof” (Jiangnan University, priority 2017, dated 2019)
